Test results taken from patent US4755598A, “1 '-(substituted)ethyl-7β-[2-(2-aminothiazol-4-yl)acetamido]-3-[[[1-(2 -dimethylaminoethyl)-1H-tetrazol-5-yl]thio]methyl]ceph-3-em-4-carboxylate derivatives having antibacterial utility” (Takeda Chemical Industries, Ltd., priority 1983, dated 1988).
Like-named read-outs stand apart in the source and are kept apart here.

How the values were obtained:
[1] = mouse, in vivo; for Plasma level of non-ester compound / AUC: po, 100 mg/kg
Description: The compounds of Examples 2, 4, 6, 7 and 8 and the 1-(ethoxycarbonyloxy)ethyl ester of compound [II] (briefly, compound A) are each administered orally to a mouse in a dose of 100 mg/kg in terms of non-ester compound, i.e., compound [II]. At 0.25, 0.5, 1.0 and 2.0 hours after administration, the concentration of the non-ester compound in the mouse plasma is determined by the cup assay using Proteus mirabilis Eb313 as the test organism and the area under the concentration-time curve for 0-2 hours (AUC) is calculated.
As control, the non-ester compound is administered subcutaneously to a mouse and the AUC value is similarly calculated.

[2] = test system: gram-negative bacteria such as Escherichia coli, Klebsiella pneumoniae, Proteus vulgaris, Proteus mirabilis and Proteus morganii; conditions: cited from earlier work
[3] = test system: bacteria; conditions: cited from earlier work
[4] = test system: gram-positive bacteria such as Staphylococcus aureus; conditions: cited from earlier work

With `CC(OC(=O)OCC(C)(C)C)OC(=O)C1=C(CSc2nnnn2CCN(C)C)CS[C@@H]2[C@H](NC(=O)Cc3csc(N)n3)C(=O)N12` (stereo partly drawn) [Example 7, 1-(2,2-Dimethylpropoxycarbonyloxy)ethyl 7β-[2-(2-aminothiazol-4-yl)acetamido]-3-[[[1-(2-dimethylaminoethyl)-1H-tetrazol-5-yl]thio]methyl]ceph-3-em-4-carboxylate] the Bioavailability ([1]; 120 min) was 92.0%, the “Plasma level of non-ester compound” value ([1]; 15 min) was 65700 ng/mL and the “Plasma level of non-ester compound” value ([1]; 30 min) was 34500 ng/mL. The “Plasma level of non-ester compound” value ([1]; 60 min) was 7230 ng/mL, the AUC ([1]; 120 min) was 35700 ng·h/mL and the “Plasma level of non-ester compound” value ([1]; 120 min) was 1860 ng/mL.

In the case of `CN(C)CCn1nnnc1SCC1=C(C(=O)O)N2C(=O)[C@@H](NC(=O)Cc3csc(N)n3)[C@H]2SC1` [compound [II], 7β-[2-(2-aminothiazol-4-yl)acetamido]-3-[[[1-(2-dimethylaminoethyl]-1H-tetrazol-5-yl]thio]methyl]ceph-3-em-4-carboxylic acid], the antibacterial activity [2] is given as “potent antibacterial activity”, the antibacterial activity [3] is given as “strong antibacterial activity” and the Bioavailability ([1]; sc, 120 min) is given as 100%. The antibacterial activity [4] was “potent antibacterial activity”.

For `CC(C)CCOC(=O)OC(C)OC(=O)C1=C(CSc2nnnn2CCN(C)C)CS[C@@H]2[C@H](NC(=O)Cc3csc(N)n3)C(=O)N12` (stereo partly drawn) [Example 2, 1-(3-Methylbutoxycarbonyloxy)ethyl 7β-[2-(2-aminothiazol-4-yl)acetamido]-3-[[[1-(2-dimethylaminoethyl)-1H-tetrazol-5-yl]thio]methyl]ceph-3-em-4-carboxylate], the Bioavailability ([1]; 120 min) was 90.8%, the “Plasma level of non-ester compound” value ([1]; 15 min) was 65800 ng/mL and the “Plasma level of non-ester compound” value ([1]; 30 min) was 28600 ng/mL. For the same compound, the “Plasma level of non-ester compound” value ([1]; 60 min) was 9660 ng/mL, the AUC ([1]; 120 min) was 35300 ng·h/mL and the “Plasma level of non-ester compound” value ([1]; 120 min) was 1680 ng/mL.

In the case of `CCCC(C)COC(=O)OC(C)OC(=O)C1=C(CSc2nnnn2CCN(C)C)CS[C@@H]2[C@H](NC(=O)Cc3csc(N)n3)C(=O)N12` (stereo partly drawn) [Example 6, 1-(2-Methylpentyloxycarbonyloxy)ethyl 7β-[2-(2-aminothiazol-4-yl)acetamido]-3-[[[1-(2-dimethylaminoethyl)-1H-tetrazol-5-yl]thio]methyl]ceph-3-em-4-carboxylate], the Bioavailability ([1]; 120 min) is reported as 80.1%, the “Plasma level of non-ester compound” value ([1]; 15 min) is reported as 50200 ng/mL and the “Plasma level of non-ester compound” value ([1]; 30 min) is reported as 31000 ng/mL. For the same compound, the “Plasma level of non-ester compound” value ([1]; 60 min) was 7310 ng/mL, the AUC ([1]; 120 min) was 31100 ng·h/mL and the “Plasma level of non-ester compound” value ([1]; 120 min) was 2860 ng/mL.

With `CCC(CC)COC(=O)OC(C)OC(=O)C1=C(CSc2nnnn2CCN(C)C)CS[C@@H]2[C@H](NC(=O)Cc3csc(N)n3)C(=O)N12` (stereo partly drawn) [Example 4, 1-(2-Ethylbutoxycarbonyloxy)ethyl 7β-[2-(2-aminothiazol-4-yl)acetamido]-3-[[[1-(2-dimethylaminoethyl)-1H-tetrazol-5-yl]thio]methyl]ceph-3-em-4-carboxylate] the Bioavailability ([1]; 120 min) was 83.6%, the “Plasma level of non-ester compound” value ([1]; 15 min) was 43900 ng/mL and the “Plasma level of non-ester compound” value ([1]; 30 min) was 39500 ng/mL. The “Plasma level of non-ester compound” value ([1]; 60 min) was 8730 ng/mL, the AUC ([1]; 120 min) was 32400 ng·h/mL and the “Plasma level of non-ester compound” value ([1]; 120 min) was 220 ng/mL.

With `CCCC(C)OC(=O)OC(C)OC(=O)C1=C(CSc2nnnn2CCN(C)C)CS[C@@H]2[C@H](NC(=O)Cc3csc(N)n3)C(=O)N12` (stereo partly drawn) [Example 8, 1-(1-Methylbutoxycarbonyloxy)ethyl 7β-[2-(2-aminothiazol-4-yl)acetamido]-3-[[[1-(2-dimethylaminoethyl)-1H-tetrazol-5-yl]thio]methyl]ceph-3-em-4-carboxylate] the Bioavailability ([1]; 120 min) was 110.6%, the “Plasma level of non-ester compound” value ([1]; 15 min) was 62700 ng/mL and the “Plasma level of non-ester compound” value ([1]; 30 min) was 48900 ng/mL. The “Plasma level of non-ester compound” value ([1]; 60 min) was 11200 ng/mL, the AUC ([1]; 120 min) was 42500 ng·h/mL and the “Plasma level of non-ester compound” value ([1]; 120 min) was 860 ng/mL.

In the case of `CCOC(=O)OC(C)OC(=O)C1=C(CSc2nnnn2CCN(C)C)CS[C@@H]2[C@H](NC(=O)Cc3csc(N)n3)C(=O)N12` (stereo partly shown) [Compound A, 1-(ethoxycarbonyloxy)ethyl ester of compound [II], reference compound], the Bioavailability ([1]; 120 min) is reported as 23.9%, the “Plasma level of non-ester compound” value ([1]; 15 min) is reported as 14700 ng/mL and the “Plasma level of non-ester compound” value ([1]; 30 min) is reported as 9200 ng/mL. The “Plasma level of non-ester compound” value ([1]; 60 min) was 2400 ng/mL, the AUC ([1]; 120 min) was 9280 ng·h/mL and the “Plasma level of non-ester compound” value ([1]; 120 min) was 700 ng/mL.
